Laboratory results: PubChem BioAssay (NCI)
“And” between values parts separate entries of the source, which are not always exact repeats. Equal values may be shown once.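 Values below derive from 48-hour exposures of cells grown in 96-well plates, with endpoints linearly interpolated between the two concentrations bracketing the appropriate inhibition level. GI50 is the concentration that inhibits growth by half. TGI marks complete inhibition of growth.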

What was measured:
Assay in all cases: NCI tumour cell line growth inhibition, 48 h
OVCAR-4 ovarian = tested on: OVCAR-4 ovarian
COLO 205 colon = tested on: COLO 205 colon
HOP-62 NSCLC = tested on: HOP-62 NSCLC
CCRF-CEM leukemia = tested on: CCRF-CEM leukemia
SR leukemia = tested on: SR leukemia
ACHN renal = tested on: ACHN renal
OVCAR-5 ovarian = tested on: OVCAR-5 ovarian
MCF7 breast = tested on: MCF7 breast

SMILES	GI50 (OVCAR-4 ovarian)	TGI (OVCAR-4 ovarian)	GI50 (COLO 205 colon)	TGI (COLO 205 colon)	GI50 (HOP-62 NSCLC)	TGI (HOP-62 NSCLC)	GI50 (CCRF-CEM leukemia)	TGI (CCRF-CEM leukemia) [µM]	GI50 (SR leukemia) [µM]	TGI (SR leukemia)	GI50 (ACHN renal)	TGI (ACHN renal)	GI50 (OVCAR-5 ovarian)	TGI (OVCAR-5 ovarian)	GI50 (MCF7 breast)	TGI (MCF7 breast)
NC(=O)[C@H]1CCN(c2ncnc(N)c2F)C[C@@H]1N1CCC[C@@H](Nc2cc(Cl)cc(C(F)(F)F)c2)C1=O	15.6 µM	95.3 µM	5.24 µM	34.2 µM	22 µM	> 100 µM	24.5 µM	> 100	28.1	83.8 µM	7 µM	76.3 µM	13.5 µM	59.3 µM	13.1 µM	52.4 µM
COc1cc(Cn2cc3c(c2)-c2oncc2CC3)cc(OC)c1OC	0.152 µM	> 100 µM	0.0332 µM	0.0957 µM	0.0479 µM	> 100 µM	0.0193 µM	16.7	0.0286	> 100 µM	0.134 µM	> 100 µM	0.0735 µM	> 100 µM	0.0324 µM	> 100 µM
CSc1nnc(CCSc2ccnc3c(C(F)(F)F)cccc23)o1	40.7 µM	> 100 µM	> 100 µM	> 100 µM	51.7 µM	> 100 µM	67.9 µM	> 100	–	–	> 100 µM	> 100 µM	> 100 µM	> 100 µM	> 100 µM	> 100 µM
Cn1c(=O)c2[nH]c(/N=N/N3CCN(CCO)CC3)nc2n(C)c1=O	–	> 100 µM	–	> 100 µM	–	> 100 µM	–	> 100	–	> 100 µM	–	> 100 µM	–	> 100 µM	–	> 100 µM
O=C(Nc1cccc(Cl)c1)Nc1ncc(CCNc2ncnc3ccsc23)s1	2.1 µM and 2.93 µM	11.9 µM and > 10 µM	< 0.0105 µM and 0.00997 µM	8.36 µM and 3.88 µM	2.37 µM and 1.41 µM	15.3 µM and > 10 µM	< 0.01 µM and 0.00391 µM	> 100	–	20.8 µM and > 10 µM	2.3 µM and 2.06 µM	16.8 µM and > 10 µM	9.88 µM and > 10 µM	25.5 µM and > 10 µM	1.17 µM and 1.31 µM	15 µM and > 10 µM
CC1=C(C(=O)OCc2ccccc2)C(c2ccc3c(c2)OCO3)n2c(nc3ccccc32)N1 (centres undefined)	13.3 µM	> 100 µM	0.417 µM	> 100 µM	8.01 µM	> 100 µM	0.418 µM	> 100	0.4	> 100 µM	0.63 µM	> 100 µM	> 100 µM	> 100 µM	0.236 µM	> 100 µM
CC1(C)CCC2(C(=O)OC3OC(CO)C(O)C(O)C3O)CC[C@]3(C)C(=CCC4C5(C)CC[C@H](OC6OC(C(=O)O)C(O)C(O)C6O)C(C)(C)C5CCC43C)C2C1 (some centres undefined)	–	–	1.36 µM	3.55 µM	2.22 µM	7.6 µM	23.1 µM	> 50	–	–	6.3 µM	12.6 µM	3.07 µM	9.41 µM	1.6 µM	> 50 µM
Cc1ccc(C(=O)Nc2ccc(S(=O)(=O)O)c3cc(S(=O)(=O)O)cc(S(=O)(=O)O)c23)cc1NC(=O)c1cccc(N)c1	–	> 100 µM	–	> 100 µM	–	> 100 µM	–	> 100	–	> 100 µM	–	> 100 µM	–	> 100 µM	–	> 100 µM
CC[C@H](Nc1nc(N)nc(C)c1C#N)c1nc2cccc(CN(C)c3ncc(C(=O)NO)cn3)c2c(=O)n1-c1ccccc1	1.01 µM	6.56 µM	–	–	0.804 µM	4.42 µM	0.228 µM	> 50	0.396	> 50 µM	1.26 µM	3.79 µM	0.678 µM	3.05 µM	0.915 µM	> 24.5 µM
CC12CCC=CC1CCC1C2CCC2(C)C(c3ccc(=O)oc3)CCC12O (centres undefined)	0.167 µM	0.641 µM	0.333 µM	1.56 µM	0.0511 µM	0.21 µM	0.0364 µM	0.544	0.0311	0.11 µM	0.0297 µM	0.128 µM	0.176 µM	0.485 µM	0.0766 µM	1.18 µM
C=C1C(=O)O[C@@H]2C1CC(=O)C(C)CC/C=C(\C)CCC[C@H](C)[C@H]2OC(C)=O (some centres undefined)	15.2 µM	32 µM	5.34 µM	> 100 µM	18.2 µM	33.3 µM	2 µM	4.75	–	–	11.4 µM	24.1 µM	18 µM	34.6 µM	4.81 µM	35.6 µM
c1ccc2nc(Cn3c[n+](Cc4ccc5ccccc5n4)c4ccccc43)ccc2c1	1.49 µM	11.6 µM	1.37 µM	3.22 µM	2.97 µM	13.7 µM	3.47 µM	21	1.69	5.48 µM	14.6 µM	31.1 µM	2.43 µM	13.7 µM	1.91 µM	11.5 µM
N=C(N)c1nn(C2OC(CO)C(O)C2O)c2nc[nH]c(=O)c12 (centres undefined)	0.647 µM	7.84 µM	1.01 µM	3.26 µM	0.3 µM	1.14 µM	0.434 µM	–	0.34	–	0.292 µM	1.99 µM	2.85 µM	14.2 µM	0.482 µM	5.09 µM
O=C1c2ccccc2C(=O)N1CC1(C(=O)O)NCCS1(=O)=O (centres undefined)	–	> 100 µM	–	> 100 µM	–	> 100 µM	–	> 100	–	> 100 µM	–	> 100 µM	–	> 100 µM	–	> 100 µM
Fc1ccc2[nH]cc(Cc3c[nH]c4ccc(F)cc34)c2c1	32 µM	> 100 µM	28.2 µM	95.6 µM	19.6 µM	40.9 µM	16.7 µM	64.5	31.1	> 100 µM	26.1 µM	63 µM	17.5 µM	38 µM	35.6 µM	> 100 µM
Cc1ccc2[nH]c(C(=O)NN3C(=O)CSC34CCCCC4C)c(-c3ccccc3)c2c1 (centres undefined)	16.5 µM	34.2 µM	20.4 µM	48.9 µM	18 µM	33.9 µM	17 µM	38.5	–	–	17.3 µM	33.3 µM	19.7 µM	36.1 µM	14.9 µM	39.2 µM
CC(C)(C(=O)NN)c1ccccc1	–	–	–	> 100 µM	–	> 100 µM	–	> 100	–	> 100 µM	–	> 100 µM	–	> 100 µM	–	> 100 µM
